Data set [1] concerns AR 1.0 cells. As to the kind of experiment: Drug accumulation assay: daunorubicin accumulation in AR 1.0 cells. Type of data set: cell-based. The conditions noted are these: Mus musculus, 100% = accumulation with verapamil 100 μM, 1 hr, 37° C. The method in brief: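 Daunorubicin accumulation was measured in cells plated 48 h beforehand. These were AR 1.0 cells, an MDR-resistant derivative of mouse EMT6 mammary carcinoma, cultured at 37 °C in 5% CO2 in RPMI 1640 plus 10% foetal calf serum and 2 mM glutamine.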

The test system of data set [2] is AR 1.0 cells. As to the kind of experiment: Potentiation of doxorubicin toxicity: proliferation assay (sulphorhodamine B). The class given is cell-based, mouse. From the text:
(a) Selected compounds of formula (I) were examined for their ability to potentiate the toxicity of doxorubicin in AR 1.0 cells.

Data set [3] has as its system AR 1.0 cells. Briefly: Potentiation index with doxorubicin titration. The class given is cell-based, mouse. The conditions noted are these: for Potentiation Index at RMA concentration 300 nM: Table C2, RMA 300 nM; for Potentiation Index at RMA concentration 500 nM: Table C2, RMA 500 nM; for Potentiation Index at RMA concentration 100 nM: Table C2, RMA 100 nM; for Potentiation Index at RMA concentration 10 nM: Table C2, RMA 10 nM; for Potentiation Index at RMA concentration 30 nM: Table C2, RMA 30 nM. The method in brief:
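Doxorubicin IC50 in AR 1.0 cells (MDR subline of EMT6 mouse mammary carcinoma) determined by sulphorhodamine B after 4-day culture across 0.263 nM-17.24 μM, with and without a fixed dose of test compound; their ratio gives the PI.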

Setting [4] is: Mus musculus, 96 h, compound alone, four day proliferation, read-out: Compound Toxicity (IC50).
[5] abbreviates: with fixed doxorubicin 0.34 μm, four days, 5760 min, read-out: Toxicity with Cytotoxic Agent (IC50).

The source of these data is patent US6218393A, “Anthranilic acid derivatives as multi drug resistance modulators” (priority 1997, dated 2001).

The IC50 is the concentration that gives 50% inhibition.

With `COc1cc2c(cc1OC)CN(CCc1ccc(NC(=O)c3ccccc3NC(=O)c3cccc(C)c3)cc1)CC2` [compound 9503, 2-(3-Methyl-benzoylamino)-N-{4-[2-(6,7-dimethoxy-3,4-dihydro-1H-isoquinolin-2-yl)-ethyl]-phenyl}-benzamide], the values for the half-inhibitory concentration (IC50) in the data set with AR 1.0 cells [1], with AR 1.0 cells [2] (setting [4]) and in the data set with AR 1.0 cells [2] (setting [5]) were 2000 nM, 3500 nM and 90 nM, respectively. Further, the “Potentiation Index at RMA concentration 300 nM” value in the data set on AR 1.0 cells [3] is 36. Further, in the data set on AR 1.0 cells [3], the “Potentiation Index at RMA concentration 500 nM” value worked out at 77.
The like results for `COc1cc2c(cc1OC)CN(CCNC(=O)c1ccccc1NC(=O)c1ccc(C3CCCCC3)cc1)CC2` [compound 9331, 2-(4-Cyclohexyl-benzoylamino)-N-[2-(6,7-dimethoxy-3,4-dihydro-1H-isoquinolin-2-yl)-ethyl]-benzamide] were, in that order, 1300 nM, 7000 nM, 40 nM, 40 and 120.
Regarding `COc1cc2c(cc1OC)CN(CCc1ccc(NC(=O)c3ccccc3NC(=O)c3ccc(C)cc3)cc1)CC2` [compound 9504, 2-(4-Methyl-benzoylamino)-N-{4-[2-(6,7-dimethoxy-3,4-dihydro-1H-isoquinolin-2-yl)-ethyl]-phenyl}-benzamide], the IC50 in the data set with AR 1.0 cells [1] worked out at 260 nM. Moreover, the half-maximal inhibitory concentration (IC50) with AR 1.0 cells [2] (setting [4]) was found to be 5000 nM. In the data set with AR 1.0 cells [2] (setting [5]), the half-maximal inhibitory concentration (IC50) worked out at 60 nM. In addition, in the data set with AR 1.0 cells [3], the “Potentiation Index at RMA concentration 100 nM” value is 34, the “Potentiation Index at RMA concentration 300 nM” value came out at 150 and the “Potentiation Index at RMA concentration 500 nM” value came out at 267.
`COc1cc2c(cc1OC)CN(CCc1ccc(NC(=O)c3ccc(C)cc3NC(=O)c3cnc4ccccc4c3)cc1)CC2` [compound 9588, Quinoline-3-carboxylic acid (2-{4-[2-(6,7-dimethoxy-3,4-dihydro-1H-isoquinolin-2-yl)-ethyl]-phenylcarbamoyl}-5-methyl-phenyl)-amide]: the figures for the half-maximal inhibitory concentration (IC50) in the data set with AR 1.0 cells [1] and in the data set with AR 1.0 cells [2] (setting [4]) were 94 nM and 6700 nM, respectively. In the data set on AR 1.0 cells [3], the “Potentiation Index at RMA concentration 10 nM” value was 6. Also, the “Potentiation Index at RMA concentration 30 nM” value in the data set on AR 1.0 cells [3] was found to be 68.
As for `COc1cc2c(cc1OC)CN(CCc1ccc(NC(=O)c3ccccc3NC(=O)c3ccccc3F)cc1)CC2` [compound 9489, 2-(2-Fluoro-benzoylamino)-N-{4-[2-(6,7-dimethoxy-3,4-dihydro-1H-isoquinolin-2-yl)-ethyl]-phenyl}-benzamide], the IC50 in the data set on AR 1.0 cells [1] stood at 150 nM. The IC50 with AR 1.0 cells [2] (setting [4]) stood at 7000 nM. Further, in the data set on AR 1.0 cells [2] (setting [5]), the concentration for half-maximal inhibition (IC50) was 50 nM. In the data set on AR 1.0 cells [3], the “Potentiation Index at RMA concentration 100 nM” value was 77, the “Potentiation Index at RMA concentration 300 nM” value came out at 192 and the “Potentiation Index at RMA concentration 500 nM” value worked out at 303.
As to `COc1ccc(C(=O)Nc2ccccc2C(=O)Nc2ccc(CCN3CCc4cc(OC)c(OC)cc4C3)cc2)cc1` [compound 9518, 2-(4-Methoxy-benzoylamino)-N-{4-[2-(6,7-dimethoxy-3,4-dihydro-1H-isoquinolin-2-yl)-ethyl]-phenyl}-benzamide], the IC50 with AR 1.0 cells [1] is 300 nM; with AR 1.0 cells [2] (setting [4]) it was 1500 nM; in the data set with AR 1.0 cells [2] (setting [5]) it was 19 nM. In addition, the “Potentiation Index at RMA concentration 300 nM” value in the data set on AR 1.0 cells [3] came out at 120. In the data set on AR 1.0 cells [3], the “Potentiation Index at RMA concentration 500 nM” value was determined as 240.
Turning to `COc1cc2c(cc1OC)CN(CCNC(=O)c1ccccc1NC(=O)c1ccc(C(C)C)cc1)CC2` [compound 9304, 2-(4-Isopropyl-benzoylamino)-N-[2-(6,7-dimethoxy-3,4-dihydro-1H-isoquinolin02-yl)-ethyl]-benzamide], the IC50 in the data set on AR 1.0 cells [1] turned out to be 1200 nM; in the data set on AR 1.0 cells [2] (setting [4]), 8000 nM; in the data set on AR 1.0 cells [2] (setting [5]), 150 nM. For the same molecule, the “Potentiation Index at RMA concentration 500 nM” value in the data set with AR 1.0 cells [3] came out at 30.
The molecule `COc1cc2c(cc1OC)CN(CCc1ccc(NC(=O)c3cc(F)ccc3NC(=O)c3cnc4ccccc4c3)cc1)CC2` [compound 9574, Quinoline-3-carboxylic acid (2-{4-[2-(6,7-dimethoxy-3,4-dihydro-1H-isoquinolin-2-yl)-ethyl]-phenylcarbamoyl}-4-fluoro-phenyl)-amide] displayed an IC50 with AR 1.0 cells [1] of 19 nM. In the data set on AR 1.0 cells [2] (setting [4]), the IC50 came out at 320 nM. Moreover, in the data set on AR 1.0 cells [3], the “Potentiation Index at RMA concentration 10 nM” value is on record as 16, the “Potentiation Index at RMA concentration 30 nM” value stood at 60 and the “Potentiation Index at RMA concentration 100 nM” value worked out at 94.
In the case of `COc1cc2c(cc1OC)CN(CCNC(=O)c1c(Cl)cccc1NC(=O)c1ccc(C(C)C)cc1)CC2` [compound 9405, 2-(4-Isopropyl-benzoylamino)-N-[2-(6,7-dimethoxy-3,4-dihydro-1H-isoquinolin-2-yl)-ethyl]-6-chioro-benzamide], the concentration for half-maximal inhibition (IC50) stood at 300 nM with AR 1.0 cells [1], 22000 nM in the data set with AR 1.0 cells [2] (setting [4]) and 90 nM in the data set on AR 1.0 cells [2] (setting [5]). In addition, in the data set on AR 1.0 cells [3], the “Potentiation Index at RMA concentration 500 nM” value turned out to be 8.6.
Turning to `COc1cc2c(cc1OC)CN(CCc1ccc(NC(=O)c3ccccc3NC(=O)c3ccccc3)cc1)CC2` [compound 9456, 2-Benzoylamino-N-{4-[2-(6,7-dimethoxy-3,4-dihydro-1H-isoquinolin-2-yl)-ethyl]-phenyl}-benzamide], the IC50 in the data set on AR 1.0 cells [1] was found to be 300 nM; in the data set on AR 1.0 cells [2] (setting [4]), 5000 nM. In addition, in the data set on AR 1.0 cells [3], the “Potentiation Index at RMA concentration 100 nM” value is on record as 112.
As to `COc1cc2c(cc1OC)CN(CCc1ccc(NC(=O)c3ccccc3NC(=O)c3ccccc3O)cc1)CC2` [compound 9535], the IC50 was 450 nM in the data set on AR 1.0 cells [1], 2600 nM in the data set with AR 1.0 cells [2] (setting [4]) and 15 nM in the data set on AR 1.0 cells [2] (setting [5]). The “Potentiation Index at RMA concentration 100 nM” value in the data set on AR 1.0 cells [3] stood at 32. Also, the “Potentiation Index at RMA concentration 300 nM” value in the data set on AR 1.0 cells [3] is on record as 128.
`COc1cc2c(cc1OC)CN(CCc1ccc(NC(=O)c3ccccc3NC(=O)c3cnc4ccccc4c3)cc1)CC2` [compound 9544, Quinoline-3-carboxylic acid (2-{4-[2-(6,7-dimethoxy-3,4-dihydro-1H-isoquinolin-2-yl)ethyl]-phenylcarbamoyl}-phenyl)-amide] gave an IC50 with AR 1.0 cells [1] of 50 nM. For the same molecule, the IC50 with AR 1.0 cells [2] (setting [4]) was 1900 nM. Besides, in the data set with AR 1.0 cells [2] (setting [5]), the IC50 turned out to be 7.7 nM. In the data set on AR 1.0 cells [3], the “Potentiation Index at RMA concentration 10 nM” value stood at 15, the “Potentiation Index at RMA concentration 30 nM” value is 67, the “Potentiation Index at RMA concentration 100 nM” value turned out to be 120 and the “Potentiation Index at RMA concentration 300 nM” value is 150.
Consider `COc1cc2c(cc1OC)CN(CCc1ccc(NC(=O)c3ccccc3NC(=O)c3c(F)cccc3F)cc1)CC2` [compound 9514, 2-(2,6-Difluoro-benzoylamino)-N-{4-[2-(6,7-dimethoxy-3,4-dihydro-1H-isoquinolin-2-yl)-ethyl]-phenyl}-benzamide], for which the values for the IC50 with AR 1.0 cells [1] and in the data set with AR 1.0 cells [2] (setting [4]) were 250 nM and 7000 nM, respectively. The “Potentiation Index at RMA concentration 300 nM” value with AR 1.0 cells [3] is 40. In the data set on AR 1.0 cells [3], the “Potentiation Index at RMA concentration 500 nM” value was found to be 120.
For `COc1cc2c(cc1OC)CN(CCc1ccc(NC(=O)c3ccccc3NC(=O)c3cnc4c(c3)CCCC4)cc1)CC2` [compound 9590, 5,6,7,8-Tetrahydroquinoline-3-carboxylic acid (2-{4-[2-(6,7-dimethoxy-3,4-dihydro-1H-isoquinolin-2-yl)-ethyl]-phenylcarbamoyl}-phenyl)-amide], in the data set with AR 1.0 cells [1], it took 97 nM to reach half-maximal inhibition (IC50). For the same molecule, the concentration for half-maximal inhibition (IC50) in the data set on AR 1.0 cells [2] (setting [4]) worked out at 9500 nM. In the data set with AR 1.0 cells [3], the “Potentiation Index at RMA concentration 10 nM” value is 2 and the “Potentiation Index at RMA concentration 30 nM” value is reported as 14.
Regarding `COc1cc2c(cc1OC)CN(CCc1ccc(NC(=O)c3cc(C)ccc3NC(=O)c3cnc4ccccc4n3)cc1)CC2` [compound 9543, Quinoxaline-2-carboxylic acid (2-{4-[2-(6,7-dimethoxy-3,4-dihydro-1H-isoquinolin-2-yl)-ethyl]-phenylcarbamoyl}-4-methyl-phenyl)-amide], the half-inhibitory concentration (IC50) in the data set on AR 1.0 cells [1] is 70 nM. In addition, the IC50 in the data set with AR 1.0 cells [2] (setting [4]) was found to be 900 nM. The IC50 in the data set on AR 1.0 cells [2] (setting [5]) came to 8 nM. Further, in the data set on AR 1.0 cells [3], the “Potentiation Index at RMA concentration 10 nM” value was found to be 24, the “Potentiation Index at RMA concentration 30 nM” value was 120, the “Potentiation Index at RMA concentration 100 nM” value amounted to 150 and the “Potentiation Index at RMA concentration 300 nM” value turned out to be 150.
Regarding `COc1cc2c(cc1OC)CN(CCc1ccc(NC(=O)c3ccccc3NC(=O)c3cccc4ccccc34)cc1)CC2` [compound 9470], the values for the IC50 with AR 1.0 cells [1], in the data set with AR 1.0 cells [2] (setting [4]) and with AR 1.0 cells [2] (setting [5]) were 1300 nM, 3500 nM and 75 nM, respectively. Further, the “Potentiation Index at RMA concentration 300 nM” value in the data set with AR 1.0 cells [3] was 26. Moreover, the “Potentiation Index at RMA concentration 500 nM” value in the data set with AR 1.0 cells [3] stood at 90.
`COc1cc2c(cc1OC)CN(CCNC(=O)c1ccccc1NC(=O)c1ccc(Oc3ccccc3)cc1)CC2` [compound 9426, 2-(4-Phenoxy-benzoylamino)-N-[2-(6,7-dimethoxy-3,4-dihydro-1H-isoquinolin-2-yl)-ethyl]-benzamide]: the IC50 with AR 1.0 cells [1] turned out to be 690 nM; with AR 1.0 cells [2] (setting [4]), 7000 nM; in the data set on AR 1.0 cells [2] (setting [5]) it was 60 nM. Further, the “Potentiation Index at RMA concentration 500 nM” value with AR 1.0 cells [3] is given as 65.
For the molecule `COc1cc2c(cc1OC)CN(CCNC(=O)c1ccccc1NC(=O)c1ccc(OCc3ccccc3)cc1)CC2` [compound 9460, 2-(4-Benzyloxy-benzoylamino)-N-[2-(6,7-dimethoxy-3,4-dihydro-1H-isoquinolin-2-yl)-ethyl]-benzamide], the concentration for half-maximal inhibition (IC50) in the data set with AR 1.0 cells [1] is 1000 nM; in the data set on AR 1.0 cells [2] (setting [4]) it was 7500 nM; in the data set with AR 1.0 cells [2] (setting [5]), 180 nM. Further, the “Potentiation Index at RMA concentration 300 nM” value in the data set on AR 1.0 cells [3] was 18. For the same molecule, the “Potentiation Index at RMA concentration 500 nM” value in the data set on AR 1.0 cells [3] is 36.
